Assay results reported in US20200291018A1, “TAM KINASE INHIBITORS” (SYROS PHARMACEUTICALS, INC., priority 2017, published 2020).

Assays:
AXL = molecular target: T1, AXL (Homo sapiens, UniProt P30530); assay: TR-FRET kinase activity assay, AXL; type: biochemical; settings: ATP at Km, 60 minutes
T1 sequence (P30530 26-894): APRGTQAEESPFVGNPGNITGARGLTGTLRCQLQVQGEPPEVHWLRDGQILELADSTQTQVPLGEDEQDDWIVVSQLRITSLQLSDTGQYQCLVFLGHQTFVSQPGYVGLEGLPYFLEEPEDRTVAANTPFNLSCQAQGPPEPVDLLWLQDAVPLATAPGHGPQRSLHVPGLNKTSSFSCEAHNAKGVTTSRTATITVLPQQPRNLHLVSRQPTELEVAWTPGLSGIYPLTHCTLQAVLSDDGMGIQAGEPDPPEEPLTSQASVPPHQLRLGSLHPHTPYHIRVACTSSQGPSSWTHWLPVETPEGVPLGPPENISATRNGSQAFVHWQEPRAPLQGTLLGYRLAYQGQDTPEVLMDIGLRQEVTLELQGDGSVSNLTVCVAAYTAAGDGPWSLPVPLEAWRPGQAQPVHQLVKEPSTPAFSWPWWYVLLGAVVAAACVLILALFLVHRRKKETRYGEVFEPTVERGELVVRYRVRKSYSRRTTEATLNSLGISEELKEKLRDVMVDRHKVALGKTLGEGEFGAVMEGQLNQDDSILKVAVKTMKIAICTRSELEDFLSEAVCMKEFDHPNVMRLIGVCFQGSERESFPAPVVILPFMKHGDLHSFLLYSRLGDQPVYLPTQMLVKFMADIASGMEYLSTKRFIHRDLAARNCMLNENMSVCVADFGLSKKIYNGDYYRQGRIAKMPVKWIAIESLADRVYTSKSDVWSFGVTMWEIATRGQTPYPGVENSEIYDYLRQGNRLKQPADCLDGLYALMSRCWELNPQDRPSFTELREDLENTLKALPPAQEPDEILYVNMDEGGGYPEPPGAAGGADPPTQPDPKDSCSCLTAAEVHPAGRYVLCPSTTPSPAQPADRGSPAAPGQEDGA
Procedure, shortened: (§1)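 TR-FRET signal from Eu-labeled phospho-site antibody bound to tyrosine-phosphorylated fluorescent peptide; inhibition lowers signal, giving IC50. Reactions: 50 mM HEPES pH 7.5, 10 mM MgCl2, 1 mM EGTA, 0.01% Brij 35, 1 mM DTT, ATP at Km per enzyme, 60 min, RT.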

MERTK = molecular target: T2, MERTK (Homo sapiens, UniProt Q12866); assay: TR-FRET kinase activity assay, MERTK; type: biochemical; settings: for IC50: TR-FRET activity assay, ATP at Km, 60 minutes, read-out: Mer IC50; for Mer/Flt3 ratio (FLT3 IC50/Mer IC50): ratio calculated as FLT3 IC50/Mer IC50
T2 sequence (Q12866 21-999): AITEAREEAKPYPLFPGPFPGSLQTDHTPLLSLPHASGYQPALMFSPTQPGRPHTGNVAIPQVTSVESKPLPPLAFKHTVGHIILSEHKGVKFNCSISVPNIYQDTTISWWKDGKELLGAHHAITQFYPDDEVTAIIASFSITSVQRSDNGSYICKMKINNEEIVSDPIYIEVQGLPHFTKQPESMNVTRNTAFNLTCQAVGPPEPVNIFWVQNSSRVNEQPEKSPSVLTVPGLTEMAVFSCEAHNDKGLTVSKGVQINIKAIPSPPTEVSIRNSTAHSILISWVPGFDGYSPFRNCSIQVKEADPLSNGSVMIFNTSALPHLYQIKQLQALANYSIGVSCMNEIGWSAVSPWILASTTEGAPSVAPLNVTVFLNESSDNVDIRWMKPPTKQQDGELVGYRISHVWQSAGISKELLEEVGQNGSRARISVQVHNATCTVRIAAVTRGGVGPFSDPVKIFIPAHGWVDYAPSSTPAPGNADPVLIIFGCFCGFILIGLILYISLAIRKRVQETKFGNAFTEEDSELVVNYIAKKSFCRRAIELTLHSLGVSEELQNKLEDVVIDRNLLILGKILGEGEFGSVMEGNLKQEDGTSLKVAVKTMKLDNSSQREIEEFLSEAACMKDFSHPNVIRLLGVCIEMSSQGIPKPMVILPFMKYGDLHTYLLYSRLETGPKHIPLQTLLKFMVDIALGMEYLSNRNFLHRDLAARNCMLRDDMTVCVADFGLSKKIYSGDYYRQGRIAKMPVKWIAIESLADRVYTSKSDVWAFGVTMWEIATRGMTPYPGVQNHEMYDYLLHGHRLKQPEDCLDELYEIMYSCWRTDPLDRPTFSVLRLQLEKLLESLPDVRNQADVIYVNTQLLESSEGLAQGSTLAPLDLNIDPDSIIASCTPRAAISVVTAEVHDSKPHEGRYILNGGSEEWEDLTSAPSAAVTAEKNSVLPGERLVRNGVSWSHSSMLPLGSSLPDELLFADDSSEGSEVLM
Procedure, shortened: as §1

Compound	IC50 (AXL) [nM]	IC50 (MERTK) [nM]	Mer/Flt3 ratio (FLT3 IC50/Mer IC50) (MERTK)
CCC(CC)Nc1ncc2c(=O)n(C3CCNCC3)cc([C@H]3CC[C@H](O)CC3)c2n1 [Compound 120]	1000 to 10000	≤ 100	+++ (a ratio of >100)
CCCCNc1ncc2c(NC3CCOCC3)ncc([C@H]3CC[C@H](O)CC3)c2n1 [Compound 124]	≤ 100	≤ 100	+ (a ratio of >2.0 and <10)
CCCCNc1ncc2c(OCCOC)ncc([C@H]3CC[C@H](O)CC3)c2n1 [Compound 125]	100 to 1000	≤ 100	NS (a ratio of ≤2.0)
CCC[C@H](C)Nc1ncc2c(=O)n(C3CCNCC3)cc([C@H]3CC[C@H](O)CC3)c2n1 [Compound 126]	100 to 1000	≤ 100	+++ (a ratio of >100)
COCCN1C(C)(C)CC(Oc2ncc([C@H]3CC[C@H](O)CC3)c3nc(N[C@@H](C)CC(F)(F)F)ncc23)CC1(C)C [Compound 355]	≤ 100	≤ 100	+++ (a ratio of >100)
Cc1ncc([C@H]2CC[C@H](O)CC2)c2nc(N[C@@H](C)CC(F)(F)F)ncc12 [Compound 356]	100 to 1000	≤ 100	+++ (a ratio of >100)
COC[C@H](C)Nc1ncc2c(OC3CCOCC3)ncc(C3CCC(F)(F)CC3)c2n1 [Compound 358]	1000 to 10000	≤ 100	++ (a ratio of between 10 and 100)
CCOc1ncc([C@H]2CC[C@H](O)CC2)c2nc(N[C@@H](C)CC(F)(F)F)ncc12 [Compound 359]	100 to 1000	≤ 100	+++ (a ratio of >100)
C[C@@H](CC(F)(F)F)Nc1ncc2c(O[C@H]3C[C@@H](O)C3)ncc([C@H]3CC[C@H](O)CC3)c2n1 [Compound 360]	100 to 1000	≤ 100	+++ (a ratio of >100)
COC[C@H](C)Nc1ncc2c(Nc3ccncc3)ncc([C@H]3CC[C@H](O)CC3)c2n1 [Compound 362]	1000 to 10000	≤ 100	+++ (a ratio of >100)
COC[C@H](C)Nc1ncc2c(Nc3cccnc3)ncc([C@H]3CC[C@H](O)CC3)c2n1 [Compound 363]	1000 to 10000	≤ 100	+++ (a ratio of >100)
C[C@@H](CC(F)(F)F)Nc1ncc2c(O[C@H]3C[C@H](O)C3)ncc([C@H]3CC[C@H](O)CC3)c2n1 [Compound 364]	100 to 1000	≤ 100	+++ (a ratio of >100)
C[C@H](Nc1ncc2c(OC3CCOCC3)ncc([C@H]3CC[C@H](O)CC3)c2n1)C(F)F [Compound 365]	100 to 1000	≤ 100	+++ (a ratio of >100)
C[C@@H](CC(F)(F)F)Nc1ncc2c(OC3C[C@H]4CC[C@@H](C3)N4C)ncc([C@H]3CC[C@H](O)CC3)c2n1 (stereo partly drawn) [Compound 370]	≤ 100	≤ 100	+++ (a ratio of >100)
COC[C@H](C)Nc1ncc2c(Nc3ccnc(C)c3)ncc([C@H]3CC[C@H](O)CC3)c2n1 [Compound 372]	1000 to 10000	≤ 100	+++ (a ratio of >100)
C[C@@H](CC(F)(F)F)Nc1ncc2c(OC3CCN(c4ncccn4)CC3)ncc([C@H]3CC[C@H](O)CC3)c2n1 [Compound 373]	100 to 1000	≤ 100	+++ (a ratio of >100)
COC[C@H](C)Nc1ncc2c(Nc3ccc(C)nc3)ncc([C@H]3CC[C@H](O)CC3)c2n1 [Compound 374]	1000 to 10000	≤ 100	+++ (a ratio of >100)
Cc1nccc(N2CCC(Oc3ncc([C@H]4CC[C@H](O)CC4)c4nc(N[C@@H](C)CC(F)(F)F)ncc34)CC2)n1 [Compound 375]	100 to 1000	≤ 100	+++ (a ratio of >100)
COCC(=O)N1C(C)(C)CC(Oc2ncc([C@H]3CC[C@H](O)CC3)c3nc(N[C@@H](C)CC(F)(F)F)ncc23)CC1(C)C [Compound 377]	1000 to 10000	≤ 100	+++ (a ratio of >100)
C[C@@H](CC(F)(F)F)Nc1ncc2c(OC3CCN([C@@H]4CCOC4)CC3)ncc([C@H]3CC[C@H](O)CC3)c2n1 [Compound 378]	100 to 1000	≤ 100	+++ (a ratio of >100)
COCCN1C(C)(C)CC(Oc2ncc([C@H]3CC[C@H](O)CC3)c3nc(NC4(C)CC4)ncc23)CC1(C)C [Compound 379]	≤ 100	≤ 100	+++ (a ratio of >100)

Results, then the compound that gave them:

IC50 (AXL) [nM]	IC50 (MERTK) [nM]	Mer/Flt3 ratio (FLT3 IC50/Mer IC50) (MERTK)	Compound
100 to 1000	≤ 100	+++ (a ratio of >100)	COC[C@H](C)Nc1ncc2c(OC3CCOCC3)ncc([C@H]3CC[C@H](O)CC3)c2n1 [Compound 122, (1S,4r)-4-(2-(((S)-1-methoxypropan-2-yl)amino)-5-((tetrahydro-2H-pyran-4-yl)oxy)pyrido[4,3-d]pyrimidin-8-yl)cyclohexan-1-ol]
1000 to 10000	≤ 100	+++ (a ratio of >100)	COC[C@H](C)Nc1ncc2c(O[C@H]3CCOC3)ncc([C@H]3CC[C@H](O)CC3)c2n1 [Compound 357]
1000 to 10000	≤ 100	+++ (a ratio of >100)	COC[C@H](C)Nc1ncc2c(OC3CC(C)(C)N(C(C)=O)C(C)(C)C3)ncc([C@H]3CC[C@H](O)CC3)c2n1 [Compound 361]
1000 to 10000	≤ 100	+++ (a ratio of >100)	COC[C@H](C)Nc1ncc2c(O[C@@H]3CCN(C)C3)ncc([C@H]3CC[C@H](O)CC3)c2n1 [Compound 366]
≤ 100	≤ 100	+++ (a ratio of >100)	CC[C@@H](C)Nc1ncc2c(OC3CC(C)(C)N(C)C(C)(C)C3)ncc([C@H]3CC[C@H](O)CC3)c2n1 [Compound 367]
1000 to 10000	≤ 100	+++ (a ratio of >100)	COC[C@H](C)Nc1ncc2c(O[C@H]3CCN(C)C3)ncc([C@H]3CC[C@H](O)CC3)c2n1 [Compound 368]
100 to 1000	≤ 100	+++ (a ratio of >100)	COCCN1CCC(Oc2ncc([C@H]3CC[C@H](O)CC3)c3nc(N[C@@H](C)CC(F)(F)F)ncc23)CC1 [Compound 369]
100 to 1000	≤ 100	+++ (a ratio of >100)	COC[C@H](C)Nc1ncc2c(OC3C[C@@H](C)N(C)[C@@H](C)C3)ncc([C@H]3CC[C@H](O)CC3)c2n1 (stereo partly drawn) [Compound 371]
100 to 1000	≤ 100	+++ (a ratio of >100)	COCCN1C(C)(C)CC(Oc2ncc([C@H]3CC[C@H](O)CC3)c3nc(N[C@@H](C)CC#N)ncc23)CC1(C)C [Compound 376]
